For one assay, the system named is HeLa. Kind of assay: Cytotoxicity against human HeLa cells after 48 hrs by MTT assay. The class given is functional, cell-based. Background: Tetrazolium dyes change colour on reduction, which living cells bring about.
The subject of the next assay is PC-3. Kind of assay: Cytotoxicity against human PC3 cells after 48 hrs by MTT assay. It is filed as functional, cell-based.
Assay [1] relates to Enterococcus faecalis. Briefly: Antibacterial activity against vancomycin-resistant Enterococcus faecalis after 24 hrs by microdilution method. It is filed as functional. A general note: In broth dilution the organism is exposed to a series of concentrations in liquid medium.
Assay [2] deals with Staphylococcus aureus. Briefly: Antibacterial activity against Staphylococcus aureus ATCC 29213 after 24 hrs by microdilution method. It is filed as functional. The conditions noted are these: ATCC 29213, 24 h.
For a further assay, the system named is A549. Kind of assay: Cytotoxicity against human A549 cells after 48 hrs by MTT assay. The class given is functional, cell-based.
Assay [3] deals with Staphylococcus aureus. Briefly: Antibacterial activity against methicillin-resistant Staphylococcus aureus after 24 hrs by microdilution method. It is filed as functional.
Assay [4] concerns Staphylococcus aureus. Briefly: Bactericidal activity against methicillin-resistant Staphylococcus aureus after 24 hrs. The class given is functional.
Assay [5] relates to Enterococcus faecalis. Briefly: Bactericidal activity against vancomycin-resistant Enterococcus faecalis after 24 hrs. The class given is functional.
In assay [6] the test system is Staphylococcus aureus. Kind of assay: Bactericidal activity against Staphylococcus aureus ATCC 29213 after 24 hrs. It is filed as functional. The conditions noted are these: ATCC 29213, 24 h.
For another assay, the system named is Escherichia coli. Kind of assay: Antibacterial activity against Escherichia coli ATCC 25922 after 24 hrs by microdilution method. The class given is functional, organism-based.
A further assay has as its system Pseudomonas aeruginosa. Briefly: Antibacterial activity against Pseudomonas aeruginosa ATCC 27853 after 24 hrs by microdilution method. It is filed as functional, organism-based.

Converted amounts (≈) assume the structure as drawn. The source made the active and inactive calls. Where only a bound is given, the exact number is not on record here.

In general, IC50 refers to the concentration that gives 50% inhibition. Read a high IC50 as weaker potency in that assay. As usually defined, the MIC is the lowest concentration found to suppress growth. Lower therefore signals greater potency. Regarding `Fc1ccc(C(c2cn(Cc3ccc(Br)cc3)c3ccc(Br)cc23)c2cn(Cc3ccc(Br)cc3)c3ccc(Br)cc23)cc1`, the 50% inhibitory concentration (IC50) came to 49 µM in the assay with HeLa, 43.7 µM in the assay with PC-3 and 24.7 µM in the assay with A549. The MIC against Enterococcus faecalis [1], with Staphylococcus aureus [2] and against Staphylococcus aureus [3] was > 128 µg/mL throughout.
One may read the MBC as the smallest concentration meeting the test's criterion for killing. Lower therefore signals greater bactericidal potency. With `Cn1cc(C(c2ccc(F)cc2)c2cn(C)c3ccc(Br)cc23)c2cc(Br)ccc21`, the 50% inhibitory concentration (IC50) in the assay on HeLa amounted to 25.4 µM; in the assay with PC-3, 38.9 µM; in the assay on A549, 29.4 µM. For the same compound, the MBC came to 8 µg/mL (≈ 15.2 µM) against Staphylococcus aureus [4], 8 µg/mL (≈ 15.2 µM) against Enterococcus faecalis [5] and 4 µg/mL (≈ 7.6 µM) with Staphylococcus aureus [6]. The minimum inhibitory concentration (MIC) was found to be 8 µg/mL (≈ 15.2 µM) against Enterococcus faecalis [1], 4 µg/mL (≈ 7.6 µM) against Staphylococcus aureus [2] and 8 µg/mL (≈ 15.2 µM) against Staphylococcus aureus [3].
`CCCCCCCCn1cc(C(c2ccc(F)cc2)c2cn(CCCCCCCC)c3ccc(Br)cc23)c2cc(Br)ccc21`: the IC50 stood at 32.4 µM with HeLa, 44.9 µM in the assay with PC-3 and 38.7 µM in the assay on A549. Besides, the MIC against Enterococcus faecalis [1], with Staphylococcus aureus [2] and in the assay on Staphylococcus aureus [3] was > 128 µg/mL throughout.
In the case of `COc1ccc(Cn2cc(C(c3ccc(F)cc3)c3cn(Cc4ccc(OC)cc4)c4ccc(Br)cc34)c3cc(Br)ccc32)cc1`, the IC50 in the assay with HeLa stood at 48.5 µM; with PC-3 it was 43.5 µM; with A549, 36.4 µM. In addition, the MIC in the assay with Enterococcus faecalis [1], against Staphylococcus aureus [2] and in the assay on Staphylococcus aureus [3] was > 128 µg/mL throughout.
Regarding `Fc1ccc(C(c2cn(Cc3ccc(Cl)cc3)c3ccc(Br)cc23)c2cn(Cc3ccc(Cl)cc3)c3ccc(Br)cc23)cc1`, the results for the IC50 in the assay on HeLa, in the assay on PC-3 and in the assay on A549 were 18.5 µM, 38.5 µM and 22.8 µM, respectively. In addition, the MIC in the assay with Enterococcus faecalis [1], against Staphylococcus aureus [2] and against Staphylococcus aureus [3] was > 128 µg/mL throughout.
On to `Fc1ccc(Cn2cc(C(c3ccc(F)cc3)c3cn(Cc4ccc(F)cc4)c4ccc(Br)cc34)c3cc(Br)ccc32)cc1`, for which the concentration for half-maximal inhibition (IC50) in the assay on HeLa amounted to 1.1 µM; with PC-3, 36.5 µM; in the assay on A549 it was 8.7 µM. Also, the MIC against Enterococcus faecalis [1], in the assay with Staphylococcus aureus [2] and against Staphylococcus aureus [3] was > 128 µg/mL each time.
As for `COc1ccc(S(=O)(=O)n2cc(C(c3ccc(F)cc3)c3cn(S(=O)(=O)c4ccc(OC)cc4)c4ccc(Br)cc34)c3cc(Br)ccc32)cc1`, the concentration for half-maximal inhibition (IC50) in the assay on HeLa, with PC-3 and in the assay with A549 was > 100 µM each time. In addition, the minimal inhibitory concentration (MIC) with Enterococcus faecalis [1], against Staphylococcus aureus [2] and in the assay on Staphylococcus aureus [3] was > 128 µg/mL in each case.
As for `CCCCCn1cc(C(c2ccc(F)cc2)c2cn(CCCCC)c3ccc(Br)cc23)c2cc(Br)ccc21`, the IC50 with HeLa is 27.2 µM; in the assay on PC-3, 40.3 µM; with A549, 32.5 µM. For the same compound, the MIC in the assay on Enterococcus faecalis [1], in the assay on Staphylococcus aureus [2] and in the assay on Staphylococcus aureus [3] was > 128 µg/mL each time.
Take `Fc1ccc(C(c2cn(Cc3ccccc3)c3ccc(Br)cc23)c2cn(Cc3ccccc3)c3ccc(Br)cc23)cc1`: the IC50 in the assay on HeLa was 28.3 µM; in the assay on PC-3, 43.1 µM; in the assay with A549, 28.2 µM. Also, the MIC against Enterococcus faecalis [1], in the assay with Staphylococcus aureus [2] and against Staphylococcus aureus [3] was > 128 µg/mL throughout.
`Fc1ccc(C(c2c[nH]c3ccc(Br)cc23)c2c[nH]c3ccc(Br)cc23)cc1`: the IC50 came out at 2.7 µM in the assay on HeLa, 3.9 µM in the assay with PC-3 and 4.5 µM in the assay with A549. Moreover, the MBC against Staphylococcus aureus [4] was found to be 1 µg/mL (≈ 2.01 µM); against Enterococcus faecalis [5], 16 µg/mL (≈ 32.1 µM); against Staphylococcus aureus [6] it was 1 µg/mL (≈ 2.01 µM). Also, the outcome with Escherichia coli and in the assay with Pseudomonas aeruginosa was inactive. In addition, the MIC against Enterococcus faecalis [1] worked out at 8 µg/mL (≈ 16.1 µM); with Staphylococcus aureus [2], 1 µg/mL (≈ 2.01 µM); in the assay on Staphylococcus aureus [3], 1 µg/mL (≈ 2.01 µM).
As to `O=S(=O)(c1ccc(F)cc1)n1cc(C(c2ccc(F)cc2)c2cn(S(=O)(=O)c3ccc(F)cc3)c3ccc(Br)cc23)c2cc(Br)ccc21`, the IC50 in the assay on HeLa, in the assay on PC-3 and in the assay with A549 was > 100 µM in each case. Further, the minimum inhibitory concentration (MIC) against Enterococcus faecalis [1], with Staphylococcus aureus [2] and against Staphylococcus aureus [3] was > 128 µg/mL throughout.

The values are drawn from ChEMBL document CHEMBL2429833, “A new class of bactericidal agents against S. aureus, MRSA and VRE derived from bisindolylmethane” (Med Chem Res, 2013).
